In data set [1] the test system is Staphylococcus aureus. Kind of data set: Antibacterial activity against methicillin-resistant Staphylococcus aureus 2658 RCMB after 18 to 20 hrs by broth microdilution method. In kind it is functional.
For data set [2], the system named is Staphylococcus aureus. As to the kind of experiment: Antibacterial activity against methicillin/ciprofloxacin/gentamicin/clindamycin-resistant Staphylococcus aureus USA200 NRS383 clinical isolate after 18 to 20 hrs by broth microdilution method. The data set is classed as functional.
Data set [3] deals with Staphylococcus aureus. As to the kind of experiment: Antibacterial activity against methicillin/ciprofloxacin/clindamycin-resistant Staphylococcus aureus USA100 NRS382 clinical isolate after 18 to 20 hrs by broth microdilution method. In kind it is functional. For orientation: Broth dilution looks for growth in wells or tubes with falling amounts of substance.
Data set [4] concerns Staphylococcus aureus. Kind of data set: Bactericidal activity against methicillin/ciprofloxacin/gentamicin/clindamycin-resistant Staphylococcus aureus USA200 NRS383 clinical isolate after 24 hrs. In kind it is functional. As to conditions: USA200 NRS383, 24 h.
Data set [5] relates to Staphylococcus aureus. Kind of data set: Bactericidal activity against methicillin/ciprofloxacin/clindamycin-resistant Staphylococcus aureus USA100 NRS382 clinical isolate after 24 hrs. The data set is classed as functional. As to conditions: USA100 NRS382, 24 h.
The nature of data set [6]: Intrinsic clearance in human liver microsomes after 10 to 60 mins in presence of NADPH by LC/MS/MS analysis. The data set is classed as ADME, microsome. As to conditions: read-out: CLH. (In general: Liver microsomes are a subcellular fraction often used to study metabolism.)
The nature of data set [7]: Half life in human liver microsomes after 10 to 60 mins in presence of NADPH by LC/MS/MS analysis. In kind it is ADME, microsome.
A short description of data set [8]: Intrinsic clearance in human liver microsomes after 10 to 60 mins in absence of NADPH by LC/MS/MS analysis. In kind it is ADME, microsome. As to conditions: read-out: CLH.
Data set [9] can be described thus: Half life in human liver microsomes after 10 to 60 mins in absence of NADPH by LC/MS/MS analysis. The data set is classed as ADME, microsome.
The subject of data set [10] is Staphylococcus aureus. As to the kind of experiment: Antibacterial activity against mupirocin/rifampicin-resistant Staphylococcus aureus RN4220 NRS107 clinical isolate after 18 to 20 hrs by broth microdilution method. In kind it is functional.
The test system of data set [11] is Staphylococcus aureus. Kind of data set: Antibacterial activity against methicillin-resistant Staphylococcus aureus USA400 NRS123 clinical isolate after 18 to 20 hrs by broth microdilution method. The data set is classed as functional.
In data set [12] the test system is Staphylococcus aureus. As to the kind of experiment: Antibacterial activity against methicillin/erythromycin/tetracycline-resistant Staphylococcus aureus USA300 NRS384 clinical isolate after 18 to 20 hrs by broth microdilution method. The data set is classed as functional.
In data set [13] the test system is Staphylococcus aureus. As to the kind of experiment: Antibacterial activity against vancomycin-resistant Staphylococcus aureus VRSA4 clinical isolate after 18 to 20 hrs by broth microdilution method. The data set is classed as functional.
In data set [14] the test system is Staphylococcus aureus. As to the kind of experiment: Antibacterial activity against vancomycin-resistant Staphylococcus aureus VRSA10 clinical isolate after 18 to 20 hrs by broth microdilution method. The data set is classed as functional.
Data set [15] concerns Staphylococcus aureus. Kind of data set: Bactericidal activity against mupirocin/rifampicin-resistant Staphylococcus aureus RN4220 NRS107 clinical isolate after 24 hrs. In kind it is functional. As to conditions: RN4220 NRS107, 24 h.
The test system of data set [16] is Staphylococcus aureus. Kind of data set: Bactericidal activity against methicillin-resistant Staphylococcus aureus USA400 NRS123 clinical isolate after 24 hrs. The data set is classed as functional. As to conditions: USA400 NRS123, 24 h.
Data set [17] deals with Staphylococcus aureus. Kind of data set: Bactericidal activity against methicillin/erythromycin/tetracycline-resistant Staphylococcus aureus USA300 NRS384 clinical isolate after 24 hrs. In kind it is functional. As to conditions: USA300 NRS384, 24 h.
Data set [18] relates to Staphylococcus aureus. Kind of data set: Bactericidal activity against vancomycin-resistant Staphylococcus aureus VRSA4 clinical isolate after 24 hrs. The data set is classed as functional. As to conditions: VRSA4, 24 h.
Data set [19] concerns Staphylococcus aureus. Kind of data set: Bactericidal activity against vancomycin-resistant Staphylococcus aureus VRSA10 clinical isolate after 24 hrs. The data set is classed as functional. As to conditions: VRSA10, 24 h.

In brackets after ≈: the same amount, converted by molar mass.

A word on the MIC: it is the least concentration at which growth counts as inhibited. A lower MIC goes with greater potency. Regarding `C/C(=N\NC(=N)N)c1sc(-c2ccc(OCC3CCC3)cc2)nc1C`, the MIC in the data set on Staphylococcus aureus [1] is greater than 30 µg/mL.

What is called MBC is the lowest tested concentration that kills the bacteria rather than only halting them. Read a high MBC as weaker bactericidal potency. The term half-life denotes how long it takes for the measured level to halve. In the case of `CCCCOc1ccc(-c2nc(C)c(/C(C)=N/NC(=N)N)s2)cc1`, the MIC against Staphylococcus aureus [1] came to 15.6 µg/mL (≈ 45.2 µM); against Staphylococcus aureus [2], 32 µg/mL (≈ 92.6 µM); in the data set with Staphylococcus aureus [3] it was 32 µg/mL (≈ 92.6 µM). Also, the MBC with Staphylococcus aureus [4] is greater than 64 µg/mL; in the data set on Staphylococcus aureus [5], greater than 128 µg/mL. The microsomal CLint in [6] and in data set [8] was less than 9.6 µL/min/mg in each case. Further, the half-life in [7] and in data set [9] was greater than 4 h throughout.

For `C/C(=N\NC(=N)N)c1sc(-c2ccc(OCCC(C)C)cc2)nc1C`, the MIC was 7.81 µg/mL (≈ 21.7 µM) against Staphylococcus aureus [1]; 16 µg/mL (≈ 44.5 µM) in the data set with Staphylococcus aureus [10]; 8 µg/mL (≈ 22.3 µM) in the data set with Staphylococcus aureus [2]; 16 µg/mL (≈ 44.5 µM) in the data set on Staphylococcus aureus [11]; 8 µg/mL (≈ 22.3 µM) with Staphylococcus aureus [3]; 16 µg/mL (≈ 44.5 µM) against Staphylococcus aureus [12]. Moreover, the MIC against Staphylococcus aureus [13] and against Staphylococcus aureus [14] was 16 µg/mL (≈ 44.5 µM) in each case. Also, the MBC against Staphylococcus aureus [15] is 16 µg/mL (≈ 44.5 µM); against Staphylococcus aureus [4], 16 µg/mL (≈ 44.5 µM); against Staphylococcus aureus [16], greater than 32 µg/mL; in the data set with Staphylococcus aureus [5], 8 µg/mL (≈ 22.3 µM); in the data set with Staphylococcus aureus [17], 32 µg/mL (≈ 89 µM); in the data set on Staphylococcus aureus [18], 32 µg/mL (≈ 89 µM). In the data set on Staphylococcus aureus [19], this molecule returned an MBC of 32 µg/mL (≈ 89 µM).

`CCOc1ccc(-c2nc(C)c(/C(C)=N/NC(=N)N)s2)cc1` had an MIC in the data set on Staphylococcus aureus [1] greater than 30 µg/mL.

For `CC(=O)NC[C@H]1CN(c2ccc(N3CCOCC3)c(F)c2)C(=O)O1` [LINEZOLID], the MBC in the data set with Staphylococcus aureus [15] worked out at 32 µg/mL (≈ 94.9 µM); in the data set on Staphylococcus aureus [4], 32 µg/mL (≈ 94.9 µM); in the data set on Staphylococcus aureus [16] it was 32 µg/mL (≈ 94.9 µM); against Staphylococcus aureus [5], 16 µg/mL (≈ 47.4 µM); with Staphylococcus aureus [17], 16 µg/mL (≈ 47.4 µM); against Staphylococcus aureus [18], 8 µg/mL (≈ 23.7 µM). The minimum bactericidal concentration (MBC) against Staphylococcus aureus [19] is 16 µg/mL (≈ 47.4 µM).

`CCCOc1ccc(-c2nc(C)c(/C(C)=N/NC(=N)N)s2)cc1`: the MIC against Staphylococcus aureus [1] is greater than 30 µg/mL.

For `CC(=O)CC(c1ccccc1)c1c(O)c2ccccc2oc1=O` (stereo unspecified) [WARFARIN], the microsomal CLint in [6] and in data set [8] was less than 9.6 µL/min/mg throughout.

The values above are taken from ChEMBL document CHEMBL4002577, “Phenylthiazole antibiotics: A metabolism-guided approach to overcome short duration of action” (Eur J Med Chem, 2017).
